We go through 24 molecules from ChEMBL document CHEMBL1143037, “Discovery of +(2-{4-[2-(5,6,7,8-tetrahydro-1,8-naphthyridin-2-yl)ethoxy]phenyl}-cyclopropyl)acetic acid as potent and selective alphavbeta3 inhibitor: design, synthesis, and optimization” (Bioorg Med Chem, 2007).

Series [1] can be described thus: (§1) Bioavailability in Sprague-Dawley rat. Particulars: Sprague-Dawley, in vivo. The format is ADME, organism-based.
Series [2] can be described thus: (§2) Volume of distribution in Sprague-Dawley rat. Type of series: ADME, organism-based. The note with it: Sprague-Dawley, in vivo, read-out: Vdss.
The nature of series [3]: (§3) Cmax in Sprague-Dawley rat. Type of series: ADME, organism-based. The note with it: Sprague-Dawley, in vivo.
For another series, the target named is Integrin alpha-V/beta-6 (Homo sapiens, UniProt P06756+P18564). Briefly: Inhibition of integrin alpha-beta-6 receptor expressed in HT29 cells. The format is cell-based, HT-29.
In series [4] the target is T1, Integrin alpha-V/beta-3 (Homo sapiens, UniProt P05106+P06756). Briefly: Inhibition of human integrin alpha-v-beta-3 receptor expressed in HEK293 cells. The format is cell-based.
Series [5] can be described thus: Clearance in Sprague-Dawley rat. The note with it: in vivo. The format is ADME, organism-based.
Series [6] is described as follows: (§4) Half life in Sprague-Dawley rat. Type of series: ADME, organism-based. Particulars: Sprague-Dawley, in vivo.
The target in series [7] is T1, Integrin alpha-V/beta-3. Briefly: Inhibition of human integrin alpha-v-beta-3 receptor by solid phase receptor assay. The format is protein-complex assay.
Series [8] can be described thus: AUC in Swiss-Webster mouse at 20 mg/kg, po. The format is ADME, organism-based. Also noted: dose 20 mg/kg, route oral. The note with it: plasma.
A short description of series [9]: AUC in Swiss-Webster mouse at 20 mg/kg, iv. The format is ADME, organism-based. Also on record: dose 20 mg/kg, route intravenous. Particulars: plasma.
Series [10] is described as follows: Bioavailability in Swiss-Webster mouse at 2 mg/kg. The format is ADME, organism-based. Particulars: in vivo.
Series [11] in a line: Half life in Swiss-Webster mouse at 2 mg/kg. Type of series: ADME, organism-based. Also noted: dose 2 mg/kg. The note with it: in vivo.
In the next series the target is Integrin alpha-V/beta-1 (Homo sapiens, UniProt P05556+P06756). Briefly: Inhibition of integrin alphavbeta1 receptor expressed in HEK293 cells. The format is cell-based.
In a further series the target is Integrin alpha-V/beta-5 (Homo sapiens, UniProt P06756+P18084). Briefly: Inhibition of integrin alpha-v-beta-5 receptor expressed in HEK293 cells. Type of series: cell-based.
Series [12] can be described thus: Bioavailability in Swiss-Webster mouse at 20 mg/kg. The format is ADME, organism-based. Particulars: in vivo.
A short description of series [13]: Half life in Swiss-Webster mouse at 20 mg/kg. Type of series: ADME, organism-based. Also on record: dose 20 mg/kg. The note with it: in vivo.
The species named for series [14] is Rattus norvegicus. Described as §1. Particulars: in vivo. The format is ADME, organism-based.
The species named for series [15] is Rattus norvegicus. The series is described as §2. The format is ADME, organism-based. Particulars: in vivo.
The species named for series [16] is Rattus norvegicus. The description is as §4. Type of series: ADME, organism-based. Particulars: in vivo.
Series [17] is filed under the species Rattus norvegicus. Described as §3. Particulars: in vivo. Type of series: ADME, organism-based.

T1 sequence (P05106 27-788 limits assumed): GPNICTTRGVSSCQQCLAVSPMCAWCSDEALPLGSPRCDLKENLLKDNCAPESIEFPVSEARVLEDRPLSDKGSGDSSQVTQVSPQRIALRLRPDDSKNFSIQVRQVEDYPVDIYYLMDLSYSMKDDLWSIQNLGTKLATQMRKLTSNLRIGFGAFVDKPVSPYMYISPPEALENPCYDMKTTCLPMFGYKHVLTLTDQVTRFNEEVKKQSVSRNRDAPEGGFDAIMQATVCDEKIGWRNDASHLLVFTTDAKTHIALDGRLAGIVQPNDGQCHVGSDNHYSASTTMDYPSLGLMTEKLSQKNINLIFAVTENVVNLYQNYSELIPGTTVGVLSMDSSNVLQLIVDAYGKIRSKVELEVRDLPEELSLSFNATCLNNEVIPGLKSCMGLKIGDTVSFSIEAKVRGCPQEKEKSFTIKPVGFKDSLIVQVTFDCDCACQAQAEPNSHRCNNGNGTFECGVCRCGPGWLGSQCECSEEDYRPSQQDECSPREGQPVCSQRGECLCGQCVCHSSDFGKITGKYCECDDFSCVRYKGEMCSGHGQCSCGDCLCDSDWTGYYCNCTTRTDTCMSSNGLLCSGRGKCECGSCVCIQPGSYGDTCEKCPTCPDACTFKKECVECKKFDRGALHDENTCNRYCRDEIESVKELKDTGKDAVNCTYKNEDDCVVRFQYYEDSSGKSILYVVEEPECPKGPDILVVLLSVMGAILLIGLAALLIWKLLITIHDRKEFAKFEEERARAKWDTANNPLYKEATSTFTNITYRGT
T1 sequence (P06756 31-889 limits assumed): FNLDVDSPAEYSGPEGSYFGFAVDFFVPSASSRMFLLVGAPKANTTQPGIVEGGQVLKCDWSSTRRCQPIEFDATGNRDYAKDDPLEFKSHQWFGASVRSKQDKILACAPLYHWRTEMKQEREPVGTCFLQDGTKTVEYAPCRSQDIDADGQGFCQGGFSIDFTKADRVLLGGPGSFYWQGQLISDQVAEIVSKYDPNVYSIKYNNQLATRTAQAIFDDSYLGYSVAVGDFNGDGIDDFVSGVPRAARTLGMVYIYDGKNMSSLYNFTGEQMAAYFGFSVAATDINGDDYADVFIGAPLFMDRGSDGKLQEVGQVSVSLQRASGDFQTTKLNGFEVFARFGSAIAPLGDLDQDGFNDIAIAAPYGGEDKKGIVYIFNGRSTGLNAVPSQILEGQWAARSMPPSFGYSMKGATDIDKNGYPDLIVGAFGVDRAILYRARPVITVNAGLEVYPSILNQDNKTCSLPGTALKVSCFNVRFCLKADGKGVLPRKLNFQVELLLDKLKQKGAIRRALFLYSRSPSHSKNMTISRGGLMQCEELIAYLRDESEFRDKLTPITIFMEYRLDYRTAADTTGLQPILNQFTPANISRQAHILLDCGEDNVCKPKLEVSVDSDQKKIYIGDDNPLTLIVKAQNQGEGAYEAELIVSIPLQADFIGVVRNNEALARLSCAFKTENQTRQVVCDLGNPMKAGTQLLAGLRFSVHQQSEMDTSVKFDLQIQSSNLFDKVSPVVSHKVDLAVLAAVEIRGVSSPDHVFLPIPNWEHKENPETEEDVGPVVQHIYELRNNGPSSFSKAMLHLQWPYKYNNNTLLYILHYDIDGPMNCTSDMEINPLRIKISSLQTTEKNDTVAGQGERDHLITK
T1 sequence (P06756 891-1048 limits assumed): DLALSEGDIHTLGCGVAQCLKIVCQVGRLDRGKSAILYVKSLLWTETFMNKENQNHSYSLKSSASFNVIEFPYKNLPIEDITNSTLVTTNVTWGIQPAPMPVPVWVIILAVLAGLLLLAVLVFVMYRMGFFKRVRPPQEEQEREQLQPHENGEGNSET
Chain of Integrin alpha-V/beta-6 (P06756 31-889 limits assumed): as the sequence (P06756 31-889 limits assumed) above
Chain of Integrin alpha-V/beta-6 (P06756 891-1048 limits assumed): as the sequence (P06756 891-1048 limits assumed) above
Chain of Integrin alpha-V/beta-6 (P18564 22-788 limits assumed): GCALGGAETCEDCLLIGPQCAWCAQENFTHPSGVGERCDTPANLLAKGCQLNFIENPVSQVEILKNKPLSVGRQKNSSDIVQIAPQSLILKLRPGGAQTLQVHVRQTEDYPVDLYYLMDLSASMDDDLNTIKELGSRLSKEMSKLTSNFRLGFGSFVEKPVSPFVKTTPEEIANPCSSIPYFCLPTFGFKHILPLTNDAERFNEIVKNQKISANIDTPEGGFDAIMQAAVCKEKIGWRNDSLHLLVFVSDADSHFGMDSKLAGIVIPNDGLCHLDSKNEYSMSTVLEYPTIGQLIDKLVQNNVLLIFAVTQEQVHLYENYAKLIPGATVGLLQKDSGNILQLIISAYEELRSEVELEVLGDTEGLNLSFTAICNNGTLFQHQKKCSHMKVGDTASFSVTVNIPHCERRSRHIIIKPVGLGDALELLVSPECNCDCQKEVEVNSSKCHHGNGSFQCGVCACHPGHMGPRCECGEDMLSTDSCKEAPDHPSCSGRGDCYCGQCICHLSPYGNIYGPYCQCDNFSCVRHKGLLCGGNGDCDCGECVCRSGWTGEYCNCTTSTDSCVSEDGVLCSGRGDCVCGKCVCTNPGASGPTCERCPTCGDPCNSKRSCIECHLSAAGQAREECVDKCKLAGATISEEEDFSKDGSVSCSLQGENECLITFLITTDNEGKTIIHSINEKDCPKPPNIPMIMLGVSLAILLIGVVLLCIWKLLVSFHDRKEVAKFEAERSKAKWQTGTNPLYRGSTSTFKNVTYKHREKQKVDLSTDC
Chain of Integrin alpha-V/beta-5 (P06756 31-889 limits assumed): as the sequence (P06756 31-889 limits assumed) above
Chain of Integrin alpha-V/beta-5 (P06756 891-1048 limits assumed): as the sequence (P06756 891-1048 limits assumed) above
Chain of Integrin alpha-V/beta-5 (P18084 24-799 limits assumed): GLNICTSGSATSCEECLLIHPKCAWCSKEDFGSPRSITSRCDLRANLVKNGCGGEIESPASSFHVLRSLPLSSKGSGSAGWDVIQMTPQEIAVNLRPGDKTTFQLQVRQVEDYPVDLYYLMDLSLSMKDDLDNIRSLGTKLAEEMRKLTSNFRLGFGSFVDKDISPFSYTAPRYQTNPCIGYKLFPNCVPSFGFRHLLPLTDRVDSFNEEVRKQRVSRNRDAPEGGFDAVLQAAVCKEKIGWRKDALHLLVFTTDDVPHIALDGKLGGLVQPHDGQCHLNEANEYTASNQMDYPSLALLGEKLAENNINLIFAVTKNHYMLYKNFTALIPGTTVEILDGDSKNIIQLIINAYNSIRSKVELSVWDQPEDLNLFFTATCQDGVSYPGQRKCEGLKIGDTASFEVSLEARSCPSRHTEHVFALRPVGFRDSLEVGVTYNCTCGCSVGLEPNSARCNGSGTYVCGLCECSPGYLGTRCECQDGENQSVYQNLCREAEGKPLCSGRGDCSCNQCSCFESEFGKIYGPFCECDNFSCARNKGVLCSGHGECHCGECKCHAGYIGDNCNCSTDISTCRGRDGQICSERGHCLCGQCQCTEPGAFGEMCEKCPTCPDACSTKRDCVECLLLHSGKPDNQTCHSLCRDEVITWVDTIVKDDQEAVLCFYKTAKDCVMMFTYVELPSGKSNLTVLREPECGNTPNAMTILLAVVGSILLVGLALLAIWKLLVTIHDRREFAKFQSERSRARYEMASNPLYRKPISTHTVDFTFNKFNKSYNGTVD
Chain of Integrin alpha-V/beta-1 (P05556 21-798 limits assumed): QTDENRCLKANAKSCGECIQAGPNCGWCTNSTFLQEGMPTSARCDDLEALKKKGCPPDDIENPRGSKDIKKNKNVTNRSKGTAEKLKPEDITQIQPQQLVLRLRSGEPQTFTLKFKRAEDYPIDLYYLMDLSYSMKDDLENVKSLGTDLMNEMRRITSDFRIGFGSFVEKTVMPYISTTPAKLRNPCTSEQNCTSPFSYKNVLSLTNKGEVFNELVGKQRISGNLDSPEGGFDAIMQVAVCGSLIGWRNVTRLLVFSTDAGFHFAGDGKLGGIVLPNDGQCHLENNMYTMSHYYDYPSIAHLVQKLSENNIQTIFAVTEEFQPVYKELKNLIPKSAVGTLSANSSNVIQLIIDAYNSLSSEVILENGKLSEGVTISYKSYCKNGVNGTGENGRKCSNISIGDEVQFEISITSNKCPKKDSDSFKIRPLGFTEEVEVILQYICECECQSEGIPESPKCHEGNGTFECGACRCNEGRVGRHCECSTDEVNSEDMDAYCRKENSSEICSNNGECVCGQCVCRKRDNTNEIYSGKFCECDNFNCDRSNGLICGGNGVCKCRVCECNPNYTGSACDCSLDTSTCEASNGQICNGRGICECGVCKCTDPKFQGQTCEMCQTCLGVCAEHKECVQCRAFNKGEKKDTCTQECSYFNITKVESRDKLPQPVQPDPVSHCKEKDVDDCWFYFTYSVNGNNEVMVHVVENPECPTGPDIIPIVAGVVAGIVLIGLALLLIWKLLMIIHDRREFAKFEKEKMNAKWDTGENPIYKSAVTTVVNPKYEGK
Chain of Integrin alpha-V/beta-1 (P06756 31-889 limits assumed): as the sequence (P06756 31-889 limits assumed) above
Chain of Integrin alpha-V/beta-1 (P06756 891-1048 limits assumed): as the sequence (P06756 891-1048 limits assumed) above

Broadly, the bioavailability is the share of a dose that reaches the circulation, judged against a reference dose that is usually intravenous. A low value points to little systemic uptake. The Cmax is the maximum level reached in the sampled fluid or tissue. By IC50 is commonly meant the concentration that gives 50% inhibition. Low readings indicate inhibition by little substance, high ones a need for much substance. By clearance is commonly meant the rate of elimination divided by the concentration. As a reminder, the half-life is the time needed for the level to fall by half in the phase considered. In [1], `O=C(O)CC1C(c2ccc(OCCc3ccc4c(n3)NCCC4)cc2)C1(Cl)Cl` (stereo unspecified) had a bioavailability of 100%. Also, the Vd in [2] amounted to 0.493 L/kg. The molecule further had a Cmax in series [3] of 17400 ng/mL. For the same molecule, the IC50 on Integrin alpha-V/beta-6 was determined as 4500 nM; at Integrin alpha-V/beta-3 [4], 1.5 nM; against Integrin alpha-V/beta-3 [7], 1.6 nM. Also, the clearance in series [5] was determined as 2.2 mL/min/kg. The same molecule showed a half-life in [6] of 4 h.
`O=C(O)CC1(c2ccccc2)CC1c1ccc(OCCc2ccc3c(n2)NCCC3)cc1` (stereo unspecified) gave a half-maximal inhibitory concentration (IC50) at Integrin alpha-V/beta-3 [7] of 2700 nM.
`CC1(c2ccc(OCCc3ccc4c(n3)NCCC4)cc2)CC1CC(=O)O` (stereo unspecified) returned an IC50 against Integrin alpha-V/beta-3 [7] of 36 nM.
A word on the AUC: it is the area under the concentration-time curve, a measure of exposure. Read a high AUC as more exposure. In the case of `O=C(O)CC1CC1c1ccc(OCCCNc2ccccn2)cc1` (stereo unspecified), the AUC in series [8] is 18300 ng·h/mL; in series [9], 14200 ng·h/mL. In series [10], this molecule displayed a bioavailability of 79%. The figures for the IC50 against Integrin alpha-V/beta-3 [4], against Integrin alpha-V/beta-3 [7] and against Integrin alpha-V/beta-1 were 42 nM, 19 nM and 234 nM, respectively. In addition, the half-life in series [11] was 2.3 h.
Regarding `O=C(O)CC1CC1c1ccc(OCCc2ccc3c(n2)NCCC3)c(O)c1` (stereo unspecified), the IC50 against Integrin alpha-V/beta-5 turned out to be 3 nM; on Integrin alpha-V/beta-6 it was 9800 nM; on Integrin alpha-V/beta-3 [4], 0.9 nM; at Integrin alpha-V/beta-3 [7], 1 nM.
On to `O=C(O)CC1CC1c1ccc(OCCc2ccc3c(n2)NCCC3)nc1` (stereo unspecified), for which the IC50 turned out to be 10000 nM on Integrin alpha-V/beta-6 and 1900 nM on Integrin alpha-V/beta-3 [7].
As to `O=C(O)CC1CC1c1cccc(OCCc2ccc3c(n2)NCCC3)c1` (stereo unspecified), the results for the 50% inhibitory concentration (IC50) at Integrin alpha-V/beta-6, against Integrin alpha-V/beta-3 [4] and against Integrin alpha-V/beta-3 [7] were 9600 nM, 205 nM and 776 nM, respectively.
On to `O=C(O)CC1CC1c1ccc(OCCc2ccc3c(n2)NCCC3)c(F)c1` (stereo unspecified), for which the bioavailability in series [1] was determined as 100%. Further, the Vd in [2] came to 0.864 L/kg. For the same molecule, the IC50 against Integrin alpha-V/beta-5 came out at 3 nM; at Integrin alpha-V/beta-6, 3530 nM; against Integrin alpha-V/beta-3 [4], 11 nM; on Integrin alpha-V/beta-3 [7], 0.5 nM; at Integrin alpha-V/beta-1 it was 11 nM. The molecule also came in with a Cmax in series [3] of 15000 ng/mL. In addition, the clearance in [5] turned out to be 5.8 mL/min/kg. Besides, the half-life in series [6] is 3.7 h.
`O=C(O)CCC1CC1c1ccc(OCc2ccc3c(n2)NCCC3)cc1` (stereo unspecified) registered an IC50 on Integrin alpha-V/beta-3 [7] of 1000 nM.
For the molecule `O=C(O)CCC1CC1c1cccc(OCCc2ccc3c(n2)NCCC3)c1` (stereo unspecified), the values for the IC50 against Integrin alpha-V/beta-3 [4] and against Integrin alpha-V/beta-3 [7] were 525 nM and 954 nM, respectively.
With `CNc1cccc(CCOc2ccc(C3CC3CC(=O)O)cc2)n1` (stereo unspecified), the IC50 against Integrin alpha-V/beta-6 came to 20000 nM; on Integrin alpha-V/beta-3 [4] it was 7 nM; against Integrin alpha-V/beta-3 [7], 7.4 nM.
Turning to `O=C(O)CC(Cc1ccc(OCCCNc2ccccn2)cc1)c1cccnc1` (stereo unspecified), the AUC amounted to 300 ng·h/mL in series [8] and 200 ng·h/mL in series [9]. In addition, the bioavailability in series [10] is 100%. Also, the IC50 was 25000 nM against Integrin alpha-V/beta-6, 2 nM on Integrin alpha-V/beta-3 [4], 0.5 nM at Integrin alpha-V/beta-3 [7] and 28 nM against Integrin alpha-V/beta-1. In addition, the half-life in series [11] is 1.7 h.
On to `CC(CC(=O)O)Cc1ccc(OCCCNc2ccccn2)cc1` (stereo unspecified), for which the results for the AUC in [8] and in series [9] were 195000 ng·h/mL and 106000 ng·h/mL, respectively. The bioavailability in series [12] was found to be 92%. Also, the IC50 was 33 nM at Integrin alpha-V/beta-5; 4360 nM at Integrin alpha-V/beta-6; 51 nM against Integrin alpha-V/beta-3 [4]; 21 nM against Integrin alpha-V/beta-3 [7]; 102 nM against Integrin alpha-V/beta-1. For the same molecule, the half-life in series [13] was 4.1 h.
Turning to `O=C(O)CC(Cc1ccc(OCCCNc2ccccn2)cc1)c1ccccc1` (stereo unspecified), the values for the AUC in [8] and in series [9] were 2800 ng·h/mL and 2300 ng·h/mL, respectively. Moreover, the IC50 is 20 nM on Integrin alpha-V/beta-5; 19800 nM against Integrin alpha-V/beta-6; 29 nM on Integrin alpha-V/beta-3 [4]; 8 nM at Integrin alpha-V/beta-3 [7]; 96 nM against Integrin alpha-V/beta-1. In series [10], this molecule returned a bioavailability of 100%. Also, the half-life in [11] is 4.4 h.
In the case of `O=C(O)CCC1CC1c1ccc(OCCc2ccc3c(n2)NCCC3)nc1` (stereo unspecified), the half-maximal inhibitory concentration (IC50) stood at 156 nM against Integrin alpha-V/beta-3 [4] and 472 nM against Integrin alpha-V/beta-3 [7].
As for `O=C(O)CC1C(c2ccc(OCCc3ccc4c(n3)NCCC4)cc2)C1(Br)Br` (stereo unspecified), the IC50 against Integrin alpha-V/beta-5 was determined as 20 nM; against Integrin alpha-V/beta-6, 4330 nM; against Integrin alpha-V/beta-3 [4], 1.7 nM; on Integrin alpha-V/beta-3 [7] it was 3.3 nM.
Regarding `O=C(O)CC1CC1c1ccc(OCCc2ccc3c(n2)NCCC3)c(F)c1F` (stereo unspecified), the IC50 at Integrin alpha-V/beta-6 was 10000 nM; against Integrin alpha-V/beta-3 [4] it was 10 nM; at Integrin alpha-V/beta-3 [7], 2 nM.
At Integrin alpha-V/beta-3 [7], `CC1(C)[C@H](c2ccc(OCCc3ccc4c(n3)NCCC4)cc2)[C@@H]1CC(=O)O` (relative stereo) returned a concentration for half-maximal inhibition (IC50) of 12 nM.
Turning to `CC1(C)C(CC(=O)O)C1c1ccc(OCCc2ccc3c(n2)NCCC3)cc1` (single isomer, unassigned; (-)), the concentration for half-maximal inhibition (IC50) against Integrin alpha-V/beta-6 is 10000 nM; against Integrin alpha-V/beta-3 [7], 42 nM.
Consider `O=C(O)CC1CC1c1ccc(OCCc2ccc3c(n2)NCCC3)cc1` (single isomer, unassigned; (-)), for which the IC50 was 33 nM against Integrin alpha-V/beta-5; 10000 nM against Integrin alpha-V/beta-6; 16 nM against Integrin alpha-V/beta-3 [4]; 16 nM against Integrin alpha-V/beta-3 [7]; 297 nM against Integrin alpha-V/beta-1.
What is called Vdss is the apparent volume that relates the amount in the body to the concentration in plasma or blood. A lower Vdss goes with little distribution into tissue. Regarding `O=C(O)CC1CC1c1ccc(OCCc2ccc3c(n2)NCCC3)cc1` (stereo in doubt; 7), the AUC in [8] was 398000 ng·h/mL; in series [9], 378000 ng·h/mL. The same molecule displayed a F in the series listed under Rattus norvegicus [14] of 62%. In addition, in the series filed under Rattus norvegicus [15], the Vdss amounted to 0.221 L/kg. In addition, the IC50 at Integrin alpha-V/beta-5 was 4.4 nM; at Integrin alpha-V/beta-3 [4], 3 nM; against Integrin alpha-V/beta-3 [7], 5 nM; on Integrin alpha-V/beta-1 it was 64 nM. In addition, the concentration in series [3] peaked (Cmax) at 24500 ng/mL. Also, in [10], the bioavailability was 62%. For the same molecule, the t1/2 in the series filed under Rattus norvegicus [16] was 1.6 h. In [11], this molecule gave a half-life of 1.6 h.
As to `CC1(C)C(CC(=O)O)C1c1ccc(OCCc2ccc3c(n2)NCCC3)cc1` (stereo in doubt; 83), in the series filed under Rattus norvegicus [15], the distribution volume (Vdss) came to 0.419 L/kg. In addition, in the series filed under Rattus norvegicus [17], the Cmax turned out to be 23500 ng/mL. Moreover, the IC50 against Integrin alpha-V/beta-6 turned out to be 10000 nM; against Integrin alpha-V/beta-3 [4], 1.5 nM; against Integrin alpha-V/beta-3 [7], 1.3 nM. This molecule also yielded a t1/2 in the series listed under Rattus norvegicus [16] of 3.5 h.
For the molecule `O=C(O)CC1CC1c1ccc(OCCc2ccc3c(n2)NCCC3)cc1` (stereo in doubt; (+)7), the F in the series listed under Rattus norvegicus [14] worked out at 100%. The molecule also had a Vdss in the series filed under Rattus norvegicus [15] of 0.915 L/kg. The IC50 turned out to be 1.4 nM against Integrin alpha-V/beta-5; 2570 nM against Integrin alpha-V/beta-6; 0.6 nM on Integrin alpha-V/beta-3 [4]; 0.6 nM on Integrin alpha-V/beta-3 [7]; 6 nM on Integrin alpha-V/beta-1. In the series filed under Rattus norvegicus [17], this molecule showed a Cmax of 14800 ng/mL. Further, the t1/2 in the series filed under Rattus norvegicus [16] was 4 h.
In [1], `CC1(C)C(CC(=O)O)C1c1ccc(OCCc2ccc3c(n2)NCCC3)cc1` (stereo in doubt; (+)83) displayed a bioavailability of 100%. The Vd in series [2] was found to be 0.276 L/kg. For the same molecule, the IC50 stood at 4 nM on Integrin alpha-V/beta-5, 1790 nM against Integrin alpha-V/beta-6, 0.4 nM against Integrin alpha-V/beta-3 [4] and 0.4 nM at Integrin alpha-V/beta-3 [7]. This molecule yielded a Cmax in series [3] of 33000 ng/mL. This molecule returned a clearance in series [5] of 0.9 mL/min/kg. The molecule also gave a half-life in [6] of 5.1 h.
